ChEMBL document CHEMBL3352247, “Synthesis and antimycobacterial evaluation of 5-alkylamino-N-phenylpyrazine-2-carboxamides” (Bioorg Med Chem, 2015)
In brackets after ≈: the same amount, converted by molar mass. Activity calls are given as the source filed them. The calls are words filed in the database; no cut-off is given here.

Key:
[1] = test system: Candida tropicalis; assay: Antifungal activity against Candida tropicalis 156 after 24 to 48 hrs by two-fold dilution method; format: functional, organism-based
[2] = test system: Trichosporon asahii; assay: Antifungal activity against Trichosporon asahii 1188 after 24 to 48 hrs by two-fold dilution method; format: functional, organism-based
[3] = test system: Staphylococcus aureus; assay: Antibacterial activity against methicillin-resistant Staphylococcus aureus H 5996/08 clinical isolate after 24 to 48 hrs by broth microdilution method; format: functional, organism-based
[4] = test system: Mycobacterium tuberculosis; assay: Antimycobacterial activity against Mycobacterium tuberculosis H37Rv CNCTC My 331/88 after 10 to 14 days by AlamarBlue assay; format: functional
[5] = test system: Enterococcus sp.; assay: Antibacterial activity against Enterococcus sp. after 24 to 48 hrs by broth microdilution method; format: functional
[6] = test system: Staphylococcus epidermidis; assay: Antibacterial activity against Staphylococcus epidermidis H 6966/08 clinical isolate after 24 to 48 hrs by broth microdilution method; format: functional, organism-based
[7] = test system: Staphylococcus aureus; assay: Antibacterial activity against Staphylococcus aureus CCM 4516/08 after 24 to 48 hrs by broth microdilution method; format: functional, organism-based
[8] = test system: Lichtheimia corymbifera; assay: Antifungal activity against Absidia corymbifera 272 after 24 to 48 hrs by two-fold dilution method; format: functional, organism-based
[9] = test system: Pseudomonas aeruginosa; assay: Antibacterial activity against Pseudomonas aeruginosa CCM 1961 after 24 to 48 hrs by broth microdilution method; format: functional, organism-based
[10] = test system: Nakaseomyces glabratus; assay: Antifungal activity against Candida glabrata 20/I after 24 to 48 hrs by two-fold dilution method; format: functional, organism-based
[11] = test system: Klebsiella pneumoniae; assay: Antibacterial activity against Klebsiella pneumoniae D 11750/08 clinical isolate after 24 to 48 hrs by broth microdilution method; format: functional, organism-based
[12] = test system: Aspergillus fumigatus; assay: Antifungal activity against Aspergillus fumigatus 231 after 24 to 48 hrs by two-fold dilution method; format: functional, organism-based
[13] = test system: Candida albicans; assay: Antifungal activity against Candida albicans ATCC 44859 after 24 to 48 hrs by two-fold dilution method; format: functional, organism-based
[14] = test system: Pichia kudriavzevii; assay: Antifungal activity against Candida krusei E28 after 24 to 48 hrs by two-fold dilution method; format: functional, organism-based
[15] = Antimycobacterial activity against Mycobacterium avium subsp. avium Chester CNCTC My 80/72 after 5 days by AlamarBlue assay; format: functional; conditions: Chester CNCTC My 80/72, 120 h
[16] = test system: Klebsiella pneumoniae; assay: Antibacterial activity against ESBL-positive Klebsiella pneumoniae J 14368/08 clinical isolate after 24 to 48 hrs by broth microdilution method; format: functional, organism-based
[17] = test system: Enterococcus sp.; assay: Antibacterial activity against Enterococcus sp. J 14365/08 clinical isolate after 24 to 48 hrs by broth microdilution method; format: functional, organism-based
[18] = test system: Mycobacterium kansasii; assay: Antimycobacterial activity against Mycobacterium kansasii CNCTC My 235/80 after 5 to 7 days by AlamarBlue assay; format: functional
[19] = test system: Escherichia coli; assay: Antibacterial activity against Escherichia coli CCM 4517 after 24 to 48 hrs by broth microdilution method; format: functional, organism-based
[20] = test system: Trichophyton mentagrophytes; assay: Antifungal activity against Trichophyton mentagrophytes 445 after 72 to 120 hrs by two-fold dilution method; format: functional, organism-based
[21] = test system: Mycobacterium kansasii; assay: Antimycobacterial activity against Mycobacterium kansasii CNCTC My 235/80 in Middlebrook 7H9 broth after 5 days by AlamarBlue assay; format: functional; conditions: CNCTC My 235/80, 120 h
[22] = Antimycobacterial activity against Mycobacterium avium subsp. avium Chester CNCTC My 80/72 in Middlebrook 7H9 broth after 5 days by AlamarBlue assay; format: functional; conditions: Chester CNCTC My 80/72, 120 h
[23] = test system: Mycobacterium tuberculosis; assay: Antimycobacterial activity against Mycobacterium tuberculosis H37Rv CNCTC My 331/88 in Middlebrook 7H9 broth after 5 days by AlamarBlue assay; format: functional; conditions: H37Rv CNCTC My 331/88, 120 h

| Structure (SMILES) | Activity [1] | Activity [2] | Activity [3] | MIC [4] | Activity [6] | Activity [7] | Activity [8] | Activity [9] | Activity [10] | Activity [11] | Activity [12] | Activity [13] | Activity [14] | MIC [15] [µg/mL] | Activity [16] | Activity [17] | MIC [18] | Activity [19] | Activity [20] | MIC [21] [µg/mL] | also measured |
| --- | --- | --- | --- | --- | --- | --- | --- | --- | --- | --- | --- | --- | --- | --- | --- | --- | --- | --- | --- | --- | --- |
| CCCCCCNc1cnc(C(=O)Nc2ccccc2)cn1 | inactive | inactive | inactive | 2.6 µM | inactive | inactive | inactive | inactive | inactive | inactive | inactive | inactive | inactive | > 100 | inactive | inactive | 2.6 µM | inactive | inactive | – | Activity [5]: Active |
| CCCNc1cnc(C(=O)Nc2ccccc2)cn1 | inactive | inactive | inactive | 12.2 µM | inactive | inactive | inactive | inactive | inactive | inactive | inactive | inactive | inactive | > 100 | inactive | inactive | 48.8 µM | inactive | inactive | – | Activity [5]: Active |
| CCCCCCCCNc1cnc(C(=O)Nc2ccccc2)cn1 | inactive | inactive | inactive | 9.6 µM | inactive | inactive | inactive | inactive | inactive | inactive | inactive | inactive | inactive | > 100 | inactive | inactive | > 100 µg/mL | inactive | inactive | – | MIC [5]: 62.5 µM (≈ 20.4 µg/mL) |
| CCCCCCNc1cnc(C(=O)Nc2ccccc2Cl)cn1 | inactive | inactive | inactive | > 100 µg/mL | inactive | inactive | inactive | inactive | inactive | inactive | inactive | inactive | inactive | > 100 | inactive | inactive | > 100 µg/mL | inactive | inactive | – | Activity [5]: Active |
| CCCNc1cnc(C(=O)Nc2ccccc2Cl)cn1 | inactive | inactive | inactive | > 100 µg/mL | inactive | inactive | inactive | inactive | inactive | inactive | inactive | inactive | inactive | > 100 | inactive | inactive | > 100 µg/mL | inactive | inactive | – | Activity [5]: Active |
| O=C(Nc1ccccc1Cl)c1cnc(Cl)cn1 | – | – | – | 2 µM | – | – | – | – | – | – | – | – | – | > 100 | – | – | – | – | – | – | – |
| NC(=O)c1cnccn1 [PYRAZINAMIDE] | – | – | – | 50.8 µM | – | – | – | – | – | – | – | – | – | > 100 | – | – | > 100 µg/mL | – | – | – | – |
| O=C(Nc1ccccc1Cl)c1cnc(NCCc2ccccc2)cn1 | inactive | inactive | inactive | – | inactive | inactive | inactive | inactive | inactive | inactive | inactive | inactive | inactive | – | inactive | inactive | – | inactive | inactive | > 100 | MIC [22]: > 100 µg/mL; MIC [23]: > 100 µg/mL |
| NNC(=O)c1ccncc1 [ISONIAZID] | – | – | – | 1.5 µM | – | – | – | – | – | – | – | – | – | 12.5 (≈ 91.1 µM) | – | – | 11.4 µM | – | – | – | – |
| O=C(Nc1ccccc1Cl)c1cnc(NCCO)cn1 | inactive | inactive | inactive | – | inactive | inactive | inactive | inactive | inactive | inactive | inactive | inactive | inactive | – | inactive | inactive | – | inactive | inactive | > 100 | MIC [22]: > 100 µg/mL; MIC [23]: > 100 µg/mL |
| O=C(Nc1ccccc1)c1cnc(NCCO)cn1 | inactive | inactive | inactive | – | inactive | inactive | inactive | inactive | inactive | inactive | inactive | inactive | inactive | – | inactive | inactive | – | inactive | inactive | > 100 | MIC [22]: > 100 µg/mL; MIC [23]: > 100 µg/mL |
| COCCNc1cnc(C(=O)Nc2ccccc2)cn1 | inactive | inactive | inactive | – | inactive | inactive | inactive | inactive | inactive | inactive | inactive | inactive | inactive | – | inactive | inactive | – | inactive | inactive | > 100 | MIC [22]: > 100 µg/mL; MIC [23]: 184 µM |
| O=C(Nc1ccccc1)c1cnc(NCCc2ccccc2)cn1 | inactive | inactive | inactive | – | inactive | inactive | inactive | inactive | inactive | inactive | inactive | inactive | inactive | – | inactive | inactive | – | inactive | inactive | > 100 | MIC [22]: > 100 µg/mL; MIC [23]: 39.3 µM |
| Nc1cnc(C(=O)Nc2ccccc2)cn1 | inactive | inactive | inactive | – | inactive | inactive | inactive | inactive | inactive | inactive | inactive | inactive | inactive | – | inactive | inactive | – | inactive | inactive | > 100 | MIC [22]: > 100 µg/mL; MIC [23]: > 100 µg/mL |
| O=C(Nc1ccccc1)c1cnc(NCCCCO)cn1 | inactive | inactive | inactive | – | inactive | inactive | inactive | inactive | inactive | inactive | inactive | inactive | inactive | – | inactive | inactive | – | inactive | inactive | > 100 | MIC [22]: > 100 µg/mL; MIC [23]: 87.3 µM |
